Test systems include MCF7 breast; NCI-H23 lung; HOP-62 NSCLC; IGROV1 ovarian; SNB-75 CNS; ACHN renal; UACC-62 melanoma; OVCAR-8 ovarian; SK-MEL-2 melanoma; T-47D breast.
Assay in all cases: growth of human tumour cells (NCI), 48 h

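These data come from cells grown in 96-well plates and exposed to compound for 48 hours at five concentrations. At the GI50, growth is halved. At the TGI there is no net growth.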

For `O=C(O)c1cc2ccccc2c(O)c1O`, the TGI came to 28.4 µM in the assay with MCF7 breast; 22.5 µM in the assay on NCI-H23 lung; 33 µM with HOP-62 NSCLC; 34.7 µM in the assay on IGROV1 ovarian; 31.7 µM with SNB-75 CNS; 31.8 µM in the assay on ACHN renal. Further, the TGI worked out at 13 µM in the assay with UACC-62 melanoma, 27.4 µM in the assay on OVCAR-8 ovarian, 14.6 µM in the assay with SK-MEL-2 melanoma and 57.7 µM in the assay with T-47D breast.
`O=C(O)c1ccc2c(c1)Cc1cc([N+](=O)[O-])ccc1-2`: the TGI in the assay with MCF7 breast, in the assay with NCI-H23 lung, in the assay with HOP-62 NSCLC, in the assay with IGROV1 ovarian, in the assay with SNB-75 CNS and in the assay on ACHN renal was more than 100 µM each time. Also, the TGI with UACC-62 melanoma, with OVCAR-8 ovarian, in the assay with SK-MEL-2 melanoma and with T-47D breast was more than 100 µM each time.
For `OCCCCC#Cc1ccccc1C#Cc1ccccc1`, the GI50 was 21 µM in the assay on MCF7 breast; 19.8 µM with NCI-H23 lung; 16.3 µM in the assay with HOP-62 NSCLC; 30.9 µM in the assay on IGROV1 ovarian; 16 µM in the assay on SNB-75 CNS; 15.2 µM in the assay with ACHN renal. The GI50 was 11.1 µM in the assay with UACC-62 melanoma, 24.5 µM with OVCAR-8 ovarian, 40 µM with SK-MEL-2 melanoma and 7.53 µM in the assay with T-47D breast. Moreover, the TGI in the assay on MCF7 breast was 48.1 µM; with NCI-H23 lung, 51.4 µM; in the assay on HOP-62 NSCLC, 30.6 µM; in the assay on IGROV1 ovarian it was more than 100 µM; with SNB-75 CNS, 42.1 µM; in the assay on ACHN renal it was 29.1 µM. Moreover, the TGI in the assay on UACC-62 melanoma was 23.5 µM; with OVCAR-8 ovarian, 59.5 µM; in the assay on SK-MEL-2 melanoma it was more than 100 µM; in the assay on T-47D breast it was more than 100 µM.

Source of the values: PubChem BioAssay (NCI).
